Patent US5508273A, “Substituted phosphonic acids and derivatives useful in treating bone wasting diseases” (priority 1993, dated 1996)
Like-named read-outs stand apart in the source and are kept apart here.

What was measured:
[1] = biological target: T1, human prostatic tyrosyl phosphatase (Homo sapiens, UniProt P15309); assay: biochemical; conditions: 30 minutes at 37° C., pH 5.5, (14C)-phosphotyrosine substrate; read-out: Tyr-Pase IC50
T1 construct: purchased Sigma Chemical Co
T1 sequence (P15309 33-386): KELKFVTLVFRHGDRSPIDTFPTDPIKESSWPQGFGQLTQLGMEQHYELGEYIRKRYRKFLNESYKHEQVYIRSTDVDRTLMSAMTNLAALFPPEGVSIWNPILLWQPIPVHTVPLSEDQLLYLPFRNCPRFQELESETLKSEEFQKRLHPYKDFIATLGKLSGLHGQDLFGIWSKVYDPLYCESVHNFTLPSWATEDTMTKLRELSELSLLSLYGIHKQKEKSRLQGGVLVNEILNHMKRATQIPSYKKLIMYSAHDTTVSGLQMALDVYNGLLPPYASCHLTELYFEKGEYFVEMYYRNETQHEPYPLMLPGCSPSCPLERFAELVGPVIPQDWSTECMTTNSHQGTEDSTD
Procedure: Inhibition of the activity of tyrosyl protein phosphatase was evaluated by incubating an aliquot of purified human prostatic tyrosyl protein acid phosphatase (Sigma Chemical Co.) with radiolabeled phosphotyrosine. The radiolabeled substrate, (^14 C)-phosphotyrosine, is separated from the product, (^14 C)-tyrosine by ion exchange chromatography and the production of radiolabeled tyrosine is quantified. Test compounds are screened at a concentration of one micromolar to 1 nM. The ability of test compounds to inhibit tyrosyl phosphatase was expressed as the % inhibition at the highest concentration of test compound tested and/or as the IC50 in Table 1.
The test compounds were incubated in the presence of tyrosyl acid phosphatase and radiolabeled substrate {(^14 C)-phosphotyrosine, (NEN Dupont Custom Synthesis)} plus cold O-phospho-L-tyrosine{(10 uM) (Sigma Chemical Co.)} in a 0.05 mM sodium acetate buffer (pH 5.5) for 30 minutes at 37° C. […] The incubation mixture was passed over an ion-exchange column {(Ag 1-X8) (Bio-Rad Laboratories)} and washed with 2.5 ml of distilled, deionized water. The total column effluent containing the radiolabeled product (^14 C-tyrosine) was collected and quantified by liquid scintillation spectroscopy. The test compounds IC50 was calculated using a quantal (all-or-none) dose-response calculation.

[2] = biological target: T2, Human osteoclastic acid phosphatase (OAP) (Homo sapiens, UniProt P13686); assay: Osteoclastic Acid Phosphatase (OAP) inhibition; type: biochemical; conditions: for inhibition at 100 µM: read-out: OAPase % Inh@100 uM
T2 construct: purified from hairy cell leukemia spleen; from tissue; host or cells: human hairy cell leukemia spleen
T2 sequence (P13686 22-325): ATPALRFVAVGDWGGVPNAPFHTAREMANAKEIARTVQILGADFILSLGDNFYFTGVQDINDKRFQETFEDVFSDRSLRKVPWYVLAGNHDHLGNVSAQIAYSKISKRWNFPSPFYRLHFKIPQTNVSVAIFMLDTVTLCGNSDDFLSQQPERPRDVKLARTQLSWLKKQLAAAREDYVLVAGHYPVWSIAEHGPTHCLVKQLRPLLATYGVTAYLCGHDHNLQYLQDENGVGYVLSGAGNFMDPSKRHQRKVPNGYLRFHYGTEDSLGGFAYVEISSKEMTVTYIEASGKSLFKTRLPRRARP
Procedure: Inhibitors of the enzyme are involved with the stimulation of osteoblast cell proliferation in cell culture which is predictive of enhancement of bone mass and bone formation in vivo. Inhibitors of osteoclastic acid phosphatase prevent the resorptive action of osteoclasts and thereby prevent the degradation of bone mass associated with osteoporosis.
The enzyme was stored at -80° C. and was diluted in 50 mM, pH 5.0, sodium acetate buffer prior to use. Test compounds were dissolved in ethanol, DMSO, or water and tested at 100 μM. The assay measures the ability of the enzyme to dephosphorylate methylumbelliferone phosphate to the product, methylumbelliferone, which is fluorescent. The enzyme assay is performed in 50 mM, pH 5.0, sodium acetate buffer as follows: 5 μL of compound was added to 150 μL Of buffered enzyme solution. […] The reaction was performed at room temperature at pH=5.0 and terminated after 20 minutes by the addition of 50 μL of 4N NaOH. The reaction product, methylumbelliferone, was measured by fluorescence determination using a Dynatech Microfluor Fluorescence detector.

[3] = test system: osteoblast-line cells (mouse MC3T3-E 1 and human TE-85); assay: Osteoblast cell proliferation (3H-thymidine incorporation); type: cell-based; conditions: MC3T3-E1, control is 100%, cell line (MC3T3-E 1 or TE-85) not stated per value, read-out: Osteoblast Prolif (% XControl@ 0.01 uM)
From the text: Compounds of the present invention have utility to treat bone wasting diseases including osteoporosis in animals including humans through enhancement of bone calcification as well as inhibition of bone degeneration or resorption. The compounds of the present invention have been evaluated as inhibitors of human prostatic tyrosyl phosphatase, an isoenzyme similar to a tyrosyl phosphatase present in human osteoblasts. Inhibitors of the enzyme are involved with the stimulation of osteoblast cell proliferation in cell culture which is predictive of enhancement of bone mass and bone formation in vivo. Inhibitors of osteoclastic acid phosphatase prevent the resorptive action of osteoclasts and thereby prevent the degradation of bone mass associated with osteoporosis. Table 1 reports the results of the compounds of the present invention in inhibiting human prostatic tyrosyl phosphatase and osteoclastic acid phosphatase. […] Their ability to stimulate osteoblast cell proliferation at 0.01 uM concentration is presented also in Table 1. […] However, such compounds may be useful as prodrugs to the acid (R^1 and R^2 equal H) and as intermediates useful in making the corresponding acid.
The action of select compounds to stimulate osteoblast growth can be measured in culture by estimating the rate of DNA synthesis by the rate of ^3 H-thymidine incorporation into DNA. Only cells undergoing mitosis will synthesize new DNA and thus only these cells will incorporate the radiolabeled DNA-specific thymidine. The stimulation of the proliferation and differentiation of bone-forming cells, osteoblasts, is a prerequisite for an increase in bone formation and bone mass. The ability of agents to increase osteoblast proliferation and differentiation can be predicted by their action on cultured osteoblast-line cells in vitro. In this test, mouse (MC3T3-E 1) cloned by Sudo et al. Koriyama, Japan) and human (TE-85) osteoblast-line cells (American Type Tissue Culture Collection, #CRL 1543, Rockville, Md.) were cultured/n vitro and the effect of various agents was tested on osteoblast cell proliferation. Osteoblasts were isolated and cultured according to literature methods. [J. E. Puzas, R. H. Drivdahl, A. G. Howard, and D. J. Baylink, Proc. Soc. Exper. Biol. Med., 166 113-122, […]]. Cells were harvested from large culture flasks, where they were allowed to grow to near confluency, using trypsin. The cells were plated into 96 well culture plates, 1600 cells in 100 μL per well in Dulbecco's Modified Eagle's Medium with 25 mM HEPES buffer, L-glutamine (584 mg/L); D-glucose (4.5 g/L) supplemented with fetal bovine sera (10%); penicillin (100 units/mL)and streptomycin (100 mcg/mL); sodium pyruvate (10 μM final concentration). The cells were allowed to plate overnight in DMEM containing 10% fetal bovine sera at 37° C., in an atmosphere of 5% CO2 /95% air. Following their placement into 96 well culture plates all the osteoblast-line cells, either the MC3T3-E 1 or the TE-85 cell lines, were allowed an additional 24 hours preincubation period in media containing only 0.1% fetal bovine sera. The next day the test compounds were added and screened at concentrations ranging from 10^-4 to 10^-8 M depending on the study. Twenty hours later, a 20 μL aliquot of media containing 0.4 μCi of ^3 H-thymidine was added to each culture well. The cells were then incubated an additional 4 hours. The incubation was terminated by aspirating the media and washing with HBSS (Hank's Balanced Salt Solution). The cells were then treated with 100 μL of 0.5% trypsin and […] of EDTA for 30 minutes at room temperature. The cells were then aspirated onto a glass fiber filter and washed with water. The radioactivity on the filters was quantified by liquid scintillation spectroscopy. The rate of ^3 H-thymidine incorporation into DNA is then utilized as an index of cell proliferation. The results are shown in Table 1 expressed as % times control where control is 100%.

[4] = pH 5.0, room temperature, 20 minutes, read-out: OAPase IC50
[5] = pH 5.0, room temperature, 20 minutes

## O=P(O)(O)C(CCCCc1ccccc1)c1ccccc1 (stereo not shown) [Cmpd 10]
[1]
  IC50: 17.4 µM
[2]; [4]
  IC50: 100 µM
[3]
  activity at 0.01 µM: 124%

## O=P(O)(O)C(c1ccccc1)c1ccccc1F (stereo not shown) [Cmpd 12]
[1]
  IC50: 40.9 µM
[2]; [5]
  inhibition at 100 µM: 12%
[3]
  activity at 0.01 µM: 124%

## Cc1ccc(C(c2ccccc2)P(=O)(O)O)cc1 (stereo not shown) [Cmpd 22]
[1]
  IC50: 152 µM
[2]; [5]
  inhibition at 100 µM: 22%
[3]
  activity at 0.01 µM: 116%

## Cc1cccc(C(Cc2ccccc2)P(=O)(O)O)c1 (stereo not shown) [Cmpd 29]
[1]
  IC50: 290 µM
[2]; [5]
  inhibition at 100 µM: 15%
[3]
  activity at 0.01 µM: 99%

## Cc1cccc(C(Cc2ccc(Cl)cc2)P(=O)(O)O)c1 (stereo not shown) [Cmpd 30]
[1]
  IC50: 81.9 µM
[3]
  activity at 0.01 µM: 97%

## O=P(O)(O)C(Cc1ccc(Cl)cc1)c1ccccc1 (stereo not shown) [Cmpd 33]
[1]
  IC50: 34.5 µM
[2]; [5]
  inhibition at 100 µM: 30%
[3]
  activity at 0.01 µM: 104%

## O=P(O)(O)C(Cc1ccccc1)c1ccccc1 (stereo not shown) [Cmpd 34]
[1]
  IC50: 89.2 µM
[2]; [5]
  inhibition at 100 µM: 15%
[3]
  activity at 0.01 µM: 156%

## O=P(O)(O)C(Cc1ccc(-c2ccccc2)cc1)c1cccc(C(F)(F)F)c1 (stereo not shown) [Cmpd 38]
[1]
  IC50: 35.7 µM
[2]; [5]
  inhibition at 100 µM: 100%
[2]; [4]
  IC50: 22 µM

## O=P(O)(O)C(Cc1ccccc1)c1ccc2ccccc2c1 (stereo not shown) [Cmpd 40]
[1]
  IC50: > 1 µM
[2]; [5]
  inhibition at 100 µM: 19%

## O=P(O)(O)C(Cc1ccc(-c2ccccc2)cc1)c1cccc2ccccc12 (stereo not shown) [Cmpd 42]
[1]
  IC50: > 1 µM
[2]; [5]
  inhibition at 100 µM: 100%
[2]; [4]
  IC50: 6.3 µM

## Cc1ccc2c(C(CC3CCCCC3)P(=O)(O)O)cccc2c1 (stereo not shown) [Cmpd 43]
[1]
  IC50: > 10 µM
[2]; [5]
  inhibition at 100 µM: 73%
[2]; [4]
  IC50: 11.4 µM

## O=P(O)(O)C(Cc1ccccc1)c1cccc2ccccc12 (stereo not shown) [Cmpd 45]
[1]
  IC50: 67.2 µM
[2]; [5]
  inhibition at 100 µM: 92%
[2]; [4]
  IC50: 21 µM

## O=P(O)(O)C(Cc1ccc(Cl)cc1)c1cccc2ccccc12 (stereo not shown) [Cmpd 48, 4-Chlorobenzyl(1-naphthyl)methylphosphonic acid]
[1]
  IC50: 56.9 µM
[2]
  IC50: 21 µM
[2]; [5]
  inhibition at 100 µM: 94%

## O=C(c1ccccc1)C(C(=O)c1ccccc1)(c1cccc2ccccc12)P(=O)(O)O [Cmpd 55, bis(Benzoyl)(1-naphthyl)methylphosphonic Acid]
[1]
  IC50: > 1 µM
[2]
  IC50: 1.4 µM
[2]; [5]
  inhibition at 100 µM: 96%
